Columns and labels:
[1] = test system: simple and complex partial seizures and secondarily generalized seizures; conditions: cited from earlier work
[2] = test system: kindled epilepsy; conditions: in vivo; cited from earlier work
[3] = test system: DSM-IV PTSD criterion B symptoms of nightmares and intrusions (intrusive recollections/flashbacks); experiment: Naturalistic add-on/monotherapy topiramate trial in chronic PTSD patients; patient self-report of partial/full response of nightmares and intrusions (LOCF); type: in vivo, human
Source text: Thirty five (35) patients meeting DSM-IV criteria for chronic post-traumatic stress disorder (PTSD) were selected for a study of the effects of topiramate administration. […] The group with hallucinatory PTSD experienced auditory and/or visual hallucinations containing content specifically associated with identified traumatic events. Whether these were PTSD “flashbacks” or psychotic experiences were at times difficult to ascertain due to fluctuations in reality testing the hallucinations. For this reason, prior to being screened for PTSD, some patients had received psychiatric diagnoses of psychotic disorders despite meeting full diagnostic criteria for PTSD.
Topiramate was added naturalistically to existing pharmacotherapy (see Table 1 for concomitant medications at start of trial), starting at 25 mglday and increasing whenever possible by 25 to 50 mg/day every 3 to 4 days to clinical response. Target symptoms were DSM-IV PTSD criterion B symptoms of nightmares (N =24) and intrusions (intrusive recollections/flashbacks, N=35) involving re-experiencing of traumas. Definitions of improvement, as assessed from patient self-report, included “partial response” as “definite reduction in intensity and frequency of nightmares or intrusions”, and “full response” as “complete cessation of nightmares and intrusions for a sustained period”. Following the seminal observations, in order to systematically identify responsive symptoms, the next 17 patients completed a self-report scale, the PTSD Checklist—Civilian Version (PCL-C)15, at baseline and at 4 weeks after starting topiramate. The patients were instructed to complete the PCL-C for experiences corresponding to traumas consistent with DSM-IV criterion A for PTSD. Paired ttest scores for the PCL-C were calculated with Jandel SigmaStat® v. 2.0.
Response assessment, summarized in Table 4, used the Last Observation Carried Forward (LOCF) method, which includes all patients who entered the trial and their last reported condition while under active treatment. Overall, topiramate suppressed nightmares in 79% of patients ([…]; 5/28 partially), and intrusions in 86% (22/35 fully; 8/35 partially). Globally (i.e., in terms of suppression of both nightmares and intrusions), 22 patients (63%) reported a full response and 8 patients (23%) a partial response. Five patients discontinued without response, 1 at 5 days, and the remaining 4 after 4 weeks. The non-hallucinatory subgroup achieved a higher response rate (full: 79%; full/partial: 89%). All full responses occurred in the non-hallucinatory subgroup. Benefit usually occurred within 2 to 3 days of reaching an effective dose. A full response to topiramate was reported for 10 patients within 1 week of treatment, and for 3 additional patients by the third week of treatment.

[4] = All Patients (N = 35), both nightmares and intrusions
[5] = All Patients (N = 35), both nightmares and intrusions, listed as topiramate
[6] = All Patients (N = 35), either nightmares or intrusions
[7] = All Patients (N = 35), either nightmares or intrusions, listed as topiramate
[8] = All Patients (N = 35), listed as topiramate
[9] = All Patients (N = 35), partial + full response
[10] = All Patients (N = 35), partial + full response, listed as topiramate
[11] = Non-Hallucinatory PTSD, Bipolar Disorder (N = 8)
[12] = Non-Hallucinatory PTSD, Bipolar Disorder (N = 8), listed as topiramate
[13] = Non-Hallucinatory PTSD, Non-Bipolar Disorder (N = 20)
[14] = Non-Hallucinatory PTSD, Non-Bipolar Disorder (N = 20), listed as topiramate
[15] = Patients with Hallucinatory PTSD (N = 7)
[16] = Patients with Hallucinatory PTSD (N = 7), listed as topiramate
[17] = Patients with Non-Hallucinatory PTSD, Total (N + 28)
[18] = Patients with Non-Hallucinatory PTSD, Total (N + 28), listed as topiramate

SMILES: CC1(C)O[C@@H]2[C@@H](CO[C@@]3(COS(N)(=O)=O)OC(C)(C)O[C@@H]23)O1 [Topiramate, 2,3:4,5-bis-O-(1-methylethylidene)-β-D-fructopyranose sulfamate]
- Efficacy in treatment of seizure types ([1]; adults and children): efficacy in the treatment of a broad range of seizure types
- Efficacy in clinical trials of human epilepsy ([1]; simple and complex partial seizures and secondarily generalized seizures): effective as adjunctive therapy or as monotherapy
- Seizure block in animal model of kindled epilepsy [2]: effectively block seizures
- Share of partial responders with response at a dosage of 75 mg/day or less ([3]; 75 mg/day or less): 95%
- Share of full responders with response at a dosage of 100 mg/day or less ([3]; 100 mg/day or less): 91%
- Patients discontinued without response ([3]; 1 at 5 days, remaining 4 after 4 weeks): Five
- Dosage of topiramate, Full response, mean ± SD ([3]; All Patients (N = 35)): 78.6 mg/day
- Dosage of topiramate, Full response, median ([3]; All Patients (N = 35)): (50.0) mg/day
- Dosage of topiramate, Partial response (threshold dosage), mean ± SD ([3]; All Patients (N = 35)): 41.7 mg/day
- Dosage of topiramate, Partial response, median ([3]; All Patients (N = 35)): (25.0) mg/day
- Suppression of intrusions, Full (number of patients) ([3]; All Patients (N = 35)): 22
- Suppression of intrusions, Partial (number of patients) ([3]; All Patients (N = 35)): 8
- Suppression of nightmares, Full (number of patients) ([3]; All Patients (N = 35)): 14
- Suppression of nightmares, Partial (number of patients) ([3]; All Patients (N = 35)): 5
- Time to onset of response, Full, mean ± SD [3, 4]: 35.3 days
- Time to onset of response, Full, median [3, 4]: (8.0) days
- Time to onset of response, Full, mean ± SD [3, 5]: 35 ± 48.6 days
- Time to onset of response, Full, median [3, 5]: 8.0 days
- Time to onset of response, Partial, mean ± SD [3, 6]: 10.9 days
- Time to onset of response, Partial, median [3, 6]: (4.0) days
- Time to onset of response, Partial, mean ± SD [3, 7]: 11 ± 13.1 days
- Time to onset of response, Partial, median [3, 7]: 4.0 days
- Dosage of topiramate, Full response, mean ± SD [3, 8]: 79 ± 113.8 mg/day
- Dosage of topiramate, Full response, median [3, 8]: 50.0 mg/day
- Dosage of topiramate, Partial response (threshold dosage), mean ± SD [3, 8]: 42 ± 31.7 mg/day
- Dosage of topiramate, Partial response, median [3, 8]: 25.0 mg/day
- Suppression of intrusions (N = 35) [3, 9]: 86%
- Suppression of nightmares (N = 24) [3, 9]: 79%
- Suppression of intrusions (N = 35) [3, 10]: 86%
- Suppression of nightmares (N = 24) [3, 10]: 79%
- Dosage of topiramate, Full response, mean ± SD [3, 11]: 154.2 mg/day
- Dosage of topiramate, Full response, median [3, 11]: (37.5) mg/day
- Dosage of topiramate, Partial response (threshold dosage), mean ± SD [3, 11]: 58.3 ± 14.4 mg/day
- Dosage of topiramate, Partial response, median [3, 11]: (50.0) mg/day
- Suppression of intrusions (N = 35) [3, 11]: 88% (7/8)
- Suppression of intrusions, Full (number of patients) [3, 11]: 6
- Suppression of intrusions, Partial (number of patients) [3, 11]: 1
- Suppression of nightmares (N = 24) [3, 11]: 83% (5/6)
- Suppression of nightmares, Full (number of patients) [3, 11]: 4
- Suppression of nightmares, Partial (number of patients) [3, 11]: 1
- Time to onset of response, Full, mean ± SD [3, 11]: 43.3 ± 62.5 days
- Time to onset of response, Full, median [3, 11]: (6.0) days
- Time to onset of response, Partial, mean ± SD [3, 11]: 17.3 ± 13.5 days
- Time to onset of response, Partial, median [3, 11]: (17.0) days
- Dosage of topiramate, Full response, mean ± SD [3, 12]: 154 ± 200.9 mg/day
- Dosage of topiramate, Full response, median [3, 12]: 37.5 mg/day
- Dosage of topiramate, Partial response (threshold dosage), mean ± SD [3, 12]: 58 ± 14.4 mg/day
- Dosage of topiramate, Partial response, median [3, 12]: 50.0 mg/day
- Dosage of topiramate, Full response, mean ± SD [3, 13]: 48.3 mg/day
- Dosage of topiramate, Full response, median [3, 13]: (50.0) mg/day
- Dosage of topiramate, Partial response (threshold dosage), mean ± SD [3, 13]: 26.9 mg/day
- Dosage of topiramate, Partial response, median [3, 13]: (25.0) mg/day
- Suppression of intrusions (N = 35) [3, 13]: 90%
- Suppression of intrusions, Full (number of patients) [3, 13]: 16
- Suppression of intrusions, Partial (number of patients) [3, 13]: 2
- Suppression of nightmares (N = 24) [3, 13]: 85%
- Suppression of nightmares, Full (number of patients) [3, 13]: 10
- Suppression of nightmares, Partial (number of patients) [3, 13]: 1
- Time to onset of response, Full, mean ± SD [3, 13]: 32.1 days
- Time to onset of response, Full, median [3, 13]: (10.0) days
- Time to onset of response, Partial, mean ± SD [3, 13]: 8.6 days
- Time to onset of response, Partial, median [3, 13]: (3.5) days
- Dosage of topiramate, Full response, mean ± SD [3, 14]: 48 ± 25.4 mg/day
- Dosage of topiramate, Full response, median [3, 14]: 50.0 mg/day
- Dosage of topiramate, Partial response (threshold dosage), mean ± SD [3, 14]: 30 ± 11.2 mg/day
- Dosage of topiramate, Partial response, median [3, 14]: 25.0 mg/day
- Dosage of topiramate, Partial response (threshold dosage), mean ± SD [3, 15]: 70.0 ± 51.2 mg/day
- Dosage of topiramate, Partial response, median [3, 15]: (75.0) mg/day
- Suppression of intrusions (N = 35) [3, 15]: 71% (5/7)
- Suppression of intrusions, Full (number of patients) [3, 15]: 0
- Suppression of intrusions, Partial (number of patients) [3, 15]: 5
- Suppression of nightmares (N = 24) [3, 15]: 60% (3/5)
- Suppression of nightmares, Full (number of patients) [3, 15]: 0
- Suppression of nightmares, Partial (number of patients) [3, 15]: 3
- Time to onset of response, Partial, mean ± SD [3, 15]: 12.6 ± 15.7 days
- Time to onset of response, Partial, median [3, 15]: (7.0) days
- Dosage of topiramate, Partial response (threshold dosage), mean ± SD [3, 16]: 70.0 ± 51.2 mg/day
- Dosage of topiramate, Partial response, median [3, 16]: 75.0 mg/day
- Time to onset of response, Partial, mean ± SD [3, 16]: 13 ± 15.7 days
- Time to onset of response, Partial, median [3, 16]: 7.0 days
- Dosage of topiramate, Full response, mean ± SD [3, 17]: 78.6 mg/day
- Dosage of topiramate, Full response, median [3, 17]: (50.0) mg/day
- Dosage of topiramate, Partial response (threshold dosage), mean ± SD [3, 17]: 32.8 mg/day
- Dosage of topiramate, Partial response, median [3, 17]: (25.0) mg/day
- Suppression of intrusions (N = 35) [3, 17]: 89%
- Suppression of intrusions, Full (number of patients) [3, 17]: 22
- Suppression of intrusions, Partial (number of patients) [3, 17]: 3
- Suppression of nightmares (N = 24) [3, 17]: 84%
- Suppression of nightmares, Full (number of patients) [3, 17]: 14
- Suppression of nightmares, Partial (number of patients) [3, 17]: 2
- Time to onset of response, Full, mean ± SD [3, 17]: 35.3 days
- Time to onset of response, Full, median [3, 17]: (8.0) days
- Time to onset of response, Partial, mean ± SD [3, 17]: 10.3 days
- Time to onset of response, Partial, median [3, 17]: (4.0) days
- Time to onset of response, Partial, mean ± SD [3, 18]: 10 ± 12.7 days
- Time to onset of response, Partial, median [3, 18]: 4.0 days
- Global full response rate (suppression of both nightmares and intrusions) ([3]; all 35 patients): 63%
- Global full response, number of patients ([3]; all 35 patients): 22 patients
- Global partial response rate ([3]; all 35 patients): 23%
- Global partial response, number of patients ([3]; all 35 patients): 8 patients
- Response rate, full/partial ([3]; all patients): 86%
- Additional patients reporting a full response by the third week of treatment ([3]; by the third week): 3 patients
- Response rate, full ([3]; hallucinatory group): 0%
- Response rate, partial ([3]; hallucinatory group): 83%
- Response rate, full ([3]; non-hallucinatory subgroup): 79%
- Response rate, full/partial ([3]; non-hallucinatory subgroup): 89%
- Patients reporting a full response within 1 week of treatment ([3]; within 1 week of treatment): 10 patients

From patent US6486198B1, “Compounds and methods for the treatment of post traumatic stress disorder” (priority 1999, dated 2002)
